This test can be described thus: Micro-Cup Burner Test (extinguishing concentration; Mass Ratio Calculation vs HALON 1211). The conditions noted are these: for Mass Ratio to HALON™ 1211: calculated from extinguishing volume % and molecular weight relative to HALON 1211 (165 g/mole); for Ext. Conc. (vol %): volume % in air required to extinguish the flame within an average time of 30 seconds or less, propane fuel. From the text: The Micro-Cup Burner Test is a laboratory test which measures the extinguishing ability of an agent based on the quantity of agent required to extinguish a fire under the following test conditions. The Micro-Cup Burner Test utilizes a quartz concentric-tube laminar-diffusion flame burner (micro-cup burner, of similar design to the above-described cup apparatus) aligned vertically with all flows upward. A fuel, typically propane unless otherwise specified, flows at 10.0 sccm (standard cubic centimeters per minute) through a 5-mm I.D. inner quartz tube which is centered in a 15-mm I.D. quartz chimney. The chimney extends 4.5 cm above the inner tube. Air flows through the annular region between the inner tube and the chimney at 1000 sccm. Prior to the addition of extinguishing composition, a visually stable flame is supported on top of the inner tube, and the resulting combustion products flow out through the chimney. An extinguishing composition to be evaluated is introduced into the air stream upstream of the burner. Liquid compositions are introduced by a syringe pump (which is calibrated to within 1%) and are volatilized in a heated trap. Gaseous compositions are introduced via a mass-flow controller to the air stream upstream from the burner. For consistency, the air-gaseous composition mixture then flows through the heated trap prior to its introduction to the flame burner. All gas flows are maintained by electronic mass-flow controllers which are calibrated to within 2%. The fuel is ignited to produce a flame and is allowed to burn for 90 seconds. After 90 seconds, a specific flow rate of composition is introduced, and the time required for the flame to be extinguished is recorded. The reported extinguishing concentrations are the recorded volume % of extinguishing composition in air required to extinguish the flame within an average time of 30 seconds or less.
The above-mentioned cup burner test measures the performance of an extinguishing composition by determining the minimum volume percent of composition in air required to extinguish a test fire. However, it is often desirable to directly compare the fire performance of an experimental extinguishing composition (e.g., a fluorinated ketone) against the performance of a state-of-the-art extinguishing composition, such as HALON™ 1211 fire extinguishing agent (CF2ClBr, a bromochlorofluorocarbon). One way to make such a comparison is to derive the mass ratio of experimental composition to HALON™ 1211 fire extinguishing agent from the volume percentages of each composition required for extinguishing. The mass ratio can be calculated by dividing the experimental composition's extinguishing volume percent by the HALON™ 1211 agent's extinguishing volume percent and multiplying the resulting quotient (which, according to the ideal gas law, also represents the ratio of mole percents) times the weight average molecular weight of the experimental composition divided by the molecular weight of HALON™ 1211 agent (165 g/mole).
In Comparative Example C1, the extinguishing concentration (volume % in air) of HALON™ 1211 fire extinguishing agent was determined as using the Micro-Cup Burner Test.
In Examples 1-16, the extinguishing concentration of several perfluorinated ketones was also determined using the Micro-Cup Burner Test. The mass ratio as compared to HALON™ 1211 fire extinguishing agent was then calculated using the Mass Ratio Calculation.
In Comparative Examples C2-C11, various fluorinated extinguishing compositions known in the art (hydrofluorocarbons, perfluorocarbons, hydrochlorofluorocarbons, hydrofluoroethers, and iodofluorocarbons) were evaluated for their extinguishing concentration, and subsequently their mass ratios were calculated with respect to HALON™ 1211 agent. […]

Turning to `O=C(C(F)(F)C(F)(F)OC(F)(F)F)C(F)(C(F)(F)F)C(F)(F)F` [Example 14, 1,1,2,2,4,5,5,5-octafluoro-1-trifluoromethoxy-4-trifluoromethylpentan-3-one], the “Mass Ratio to HALON™ 1211” value was 2.76 and the “Ext. Conc. (vol %)” value was 4.3 vol %.

For the compound `FC(F)(F)I` [Comparative Example C2, iodotrifluoromethane, reference compound], the “Mass Ratio to HALON™ 1211” value is reported as 1.14 and the “Ext. Conc. (vol %)” value is 3.5 vol %.

For `O=C(C(=O)C(F)(C(F)(F)F)C(F)(F)F)C(F)(C(F)(F)F)C(F)(F)F` [Example 11, 1,1,1,2,5,6,6,6-octafluoro-2,5-bis(trifluoromethyl)hexan-3,4-dione], the “Mass Ratio to HALON™ 1211” value is recorded as 2.57 and the “Ext. Conc. (vol %)” value is listed as 4.0 vol %.

In the case of `O=C(CC(=O)C(F)(F)F)C(F)(F)F` [Example 10, 1,1,1,5,5,5-hexafluoropentan-2,4-dione], the “Mass Ratio to HALON™ 1211” value is 2.55 and the “Ext. Conc. (vol %)” value is listed as 7.3 vol %.

`O=C(C(F)(F)C(F)F)C(F)(C(F)(F)F)C(F)(F)F` [Example 6, 1,1,1,2,4,4,5,5-octafluoro-2-trifluoromethylpentan-3-one]: the “Mass Ratio to HALON™ 1211” value is listed as 2.20 and the “Ext. Conc. (vol %)” value is reported as 4.4 vol %.

In the case of `FC(F)(Cl)Br` [Comparative Example C1, bromochlorodifluoromethane, reference compound], the “Mass Ratio to HALON™ 1211” value is given as 1.00 and the “Ext. Conc. (vol %)” value is listed as 3.6 vol %.

In the case of `O=C(C(F)(F)C(F)(F)C(F)(F)F)C(F)(F)C(F)(F)C(F)(F)F` [Example 12, 1,1,1,2,2,3,3,5,5,6,6,7,7,7tetradecafluoroheptan-4-one], the “Mass Ratio to HALON™ 1211” value is recorded as 2.64 and the “Ext. Conc. (vol %)” value is recorded as 4.3 vol %.

Consider `O=C(C(F)(F)F)C(F)(C(F)(F)F)C(F)(F)F` [Example 5, 1,1,1,3,4,4,4-heptafluoro-3-trifluoromethylbutan-2-one], for which the “Mass Ratio to HALON™ 1211” value is listed as 2.19 and the “Ext. Conc. (vol %)” value is recorded as 4.9 vol %.

In the case of `FC(F)(F)C(F)(F)C(F)(F)F` [Comparative Example C6, perfluoro-n-propane, reference compound], the “Mass Ratio to HALON™ 1211” value is listed as 2.05 and the “Ext. Conc. (vol %)” value is on record as 6.5 vol %.

On to `O=C(C(F)(F)C(F)(F)C(F)(F)C(F)(F)F)C(F)(C(F)(F)F)C(F)(F)F` [Example 16, 1,1,1,2,4,4,5,5,6,6,7,7,7-tridecafluoro-2-trifluoromethylheptan-3-one], for which the “Mass Ratio to HALON™ 1211” value is listed as 3.00 and the “Ext. Conc. (vol %)” value is listed as 4.3 vol %.

`O=C(C(F)(F)Cl)C(F)(C(F)(F)F)C(F)(F)F` [Example 8, 1-chloro-1,1,3,4,4,4-hexafluoro-3-trifluoromethyl-butan-2-one]: the “Mass Ratio to HALON™ 1211” value is on record as 2.23 and the “Ext. Conc. (vol %)” value is 4.7 vol %.

With `COC(F)(F)C(F)(F)C(F)(F)C(F)(F)F` [Comparative Example C10, perfluorobutyl Methyl Ether, reference compound], the “Mass Ratio to HALON™ 1211” value is on record as 2.52 and the “Ext. Conc. (vol %)” value is recorded as 6.1 vol %.

For the compound `FC(C(F)(F)F)C(F)(F)F` [Comparative Example C5, 1,1,1,2,3,3,3-heptafluoropropane, reference compound], the “Mass Ratio to HALON™ 1211” value was 1.90 and the “Ext. Conc. (vol %)” value is reported as 6.6 vol %.

As for `FC(F)(F)CC(F)(F)F` [Comparative Example C3, 1,1,1,3,3,3-hexafluoropropane, reference compound], the “Mass Ratio to HALON™ 1211” value was 1.61 and the “Ext. Conc. (vol %)” value is given as 6.3 vol %.

On to `O=C(C(F)(F)C(F)(F)F)C(F)(F)C(F)(F)C(F)(F)F` [Example 9, 1,1,1,2,2,4,4,5,5,6,6,6-dodecafluorohexan-3-one], for which the “Mass Ratio to HALON™ 1211” value is given as 2.39 and the “Ext. Conc. (vol %)” value is 4.5 vol %.

Take `O=C(C(F)(C(F)(F)F)C(F)(F)F)C(F)(C(F)(F)F)C(F)(F)F` [Example 2, 1,1,1,2,4,5,5,5,6,6,6-octafluoro-2,4-bis(trifluoromethyl)pentan-3-one]: the “Mass Ratio to HALON™ 1211” value is listed as 2.03 and the “Ext. Conc. (vol %)” value is 3.3 vol %.

As to `O=C1C(F)(F)C(F)(F)C(F)(F)C(F)(F)C1(F)F` [Example 15, decafluorocyclohexanone], the “Mass Ratio to HALON™ 1211” value is given as 2.80 and the “Ext. Conc. (vol %)” value was 6.0 vol %.

For `CC(=O)C(F)(F)C(F)(F)C(F)(F)C(F)(F)F` [Comparative Example C13, perfluorobutyl methyl ketone, reference compound], the “Mass Ratio to HALON™ 1211” value is listed as 2.77 and the “Ext. Conc. (vol %)” value is 6.3 vol %.

For the compound `COC(F)(F)C(F)(F)C(F)(F)F` [Comparative Example C11, 1,1,1,2,2,3,3-heptafluoro-3-methoxypropane, reference compound], the “Mass Ratio to HALON™ 1211” value is 2.52 and the “Ext. Conc. (vol %)” value is on record as 7.5 vol %.

On to `O=C(C(F)(F)F)C(F)(F)C(F)(F)C(F)(F)C(F)(F)C(F)(F)C(F)(F)F` [Example 4, 1,1,1,3,3,4,4,5,5,6,6,7,7,8,8,8-hexadecafluorooctan-2-one], for which the “Mass Ratio to HALON™ 1211” value is given as 2.17 and the “Ext. Conc. (vol %)” value was 3.1 vol %.

As to `COC(F)(C(F)(F)F)C(F)(C(F)(F)F)C(F)(F)F` (stereo not shown) [Comparative Example C9, 1,1,1,2,3,4,4,4-octafluoro-3-trifluoromethyl-2-methoxybutane, reference compound], the “Mass Ratio to HALON™ 1211” value is reported as 2.27 and the “Ext. Conc. (vol %)” value is recorded as 4.5 vol %.

For the compound `FC(F)(F)C(F)(F)C(F)(F)C(F)(F)F` [Comparative Example C7, perfluoro-n-butane, reference compound], the “Mass Ratio to HALON™ 1211” value was 2.12 and the “Ext. Conc. (vol %)” value is listed as 5.3 vol %.

On to `CC(=O)C(F)(C(F)(F)F)C(F)(F)F` [Comparative Example C12, 3,4,4,4-tetrafluoro-3-trifluoromethylbutan-2-one, reference compound], for which the “Mass Ratio to HALON™ 1211” value was 2.42 and the “Ext. Conc. (vol %)” value is reported as 6.8 vol %.

Consider `O=C(C(F)(F)F)C(F)(F)C(F)(F)F` [Example 13, 1,1,1,3,3,4,4,4-octafluorobutan-2-one], for which the “Mass Ratio to HALON™ 1211” value is on record as 2.68 and the “Ext. Conc. (vol %)” value was 7.4 vol %.

Take `O=C(C(F)(F)C(F)(F)C(F)(F)F)C(F)(C(F)(F)F)C(F)(F)F` [Example 7, 1,1,1,2,4,4,5,5,6,6,6-undecafluoro-2-trifluoromethylhexan-3-one]: the “Mass Ratio to HALON™ 1211” value is 2.21 and the “Ext. Conc. (vol %)” value is reported as 3.6 vol %.

For `FC(F)(F)C(F)(F)C(F)(F)C(F)(F)C(F)(F)C(F)(F)F` [Comparative Example C8, perfluoro-n-hexane, reference compound], the “Mass Ratio to HALON™ 1211” value is given as 2.27 and the “Ext. Conc. (vol %)” value is 4.0 vol %.
